Laboratory results taken from ChEMBL document CHEMBL4422610, “HDAC as onco target: Reviewing the synthetic approaches with SAR study of their inhibitors” (Eur J Med Chem, 2018).

Key:
[1] = molecular target: T1, Protein deacetylase HDAC6 (Homo sapiens, UniProt Q9UBN7); assay: Inhibition of recombinant human His-tagged HDAC6 expressed in baculovirus infected insect cells using Boc Lys(Ac)-AMC as substrate preincubated for 5 mins followed by substrate addition and measured after 30 mins by fluorescence assay
T1 sequence (Q9UBN7 whole entry): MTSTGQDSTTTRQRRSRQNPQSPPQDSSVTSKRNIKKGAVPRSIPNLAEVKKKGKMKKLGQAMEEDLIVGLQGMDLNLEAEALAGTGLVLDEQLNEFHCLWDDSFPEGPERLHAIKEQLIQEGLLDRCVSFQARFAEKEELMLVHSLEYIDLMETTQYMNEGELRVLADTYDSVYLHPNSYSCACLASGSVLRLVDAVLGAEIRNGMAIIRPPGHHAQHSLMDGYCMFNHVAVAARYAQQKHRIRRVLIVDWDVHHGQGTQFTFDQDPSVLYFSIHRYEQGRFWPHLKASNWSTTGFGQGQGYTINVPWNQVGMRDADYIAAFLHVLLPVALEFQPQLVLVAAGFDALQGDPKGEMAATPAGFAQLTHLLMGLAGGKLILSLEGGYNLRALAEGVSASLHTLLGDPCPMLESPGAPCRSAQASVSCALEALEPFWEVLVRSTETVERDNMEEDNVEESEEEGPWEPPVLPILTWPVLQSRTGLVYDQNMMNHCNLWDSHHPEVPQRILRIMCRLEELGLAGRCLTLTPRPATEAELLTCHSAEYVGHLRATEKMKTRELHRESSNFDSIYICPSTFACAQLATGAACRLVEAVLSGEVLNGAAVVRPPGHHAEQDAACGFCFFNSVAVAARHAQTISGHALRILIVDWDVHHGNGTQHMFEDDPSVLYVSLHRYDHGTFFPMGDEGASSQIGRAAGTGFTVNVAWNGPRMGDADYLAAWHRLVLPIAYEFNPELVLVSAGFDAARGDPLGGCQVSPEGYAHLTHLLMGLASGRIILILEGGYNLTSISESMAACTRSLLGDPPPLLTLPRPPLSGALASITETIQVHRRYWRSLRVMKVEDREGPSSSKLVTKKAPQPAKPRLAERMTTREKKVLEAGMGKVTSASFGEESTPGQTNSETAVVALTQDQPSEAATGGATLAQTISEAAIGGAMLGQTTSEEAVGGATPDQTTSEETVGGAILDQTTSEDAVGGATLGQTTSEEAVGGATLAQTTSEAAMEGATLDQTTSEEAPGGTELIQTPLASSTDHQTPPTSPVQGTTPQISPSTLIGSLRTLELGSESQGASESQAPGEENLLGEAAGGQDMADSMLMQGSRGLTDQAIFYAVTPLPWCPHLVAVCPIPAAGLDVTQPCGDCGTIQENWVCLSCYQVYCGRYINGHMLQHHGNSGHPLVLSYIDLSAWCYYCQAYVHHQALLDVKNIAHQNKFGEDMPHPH

[2] = molecular target: T2, Histone deacetylase 1 (Homo sapiens, UniProt Q13547); assay: Inhibition of recombinant human His-tagged HDAC1 (482 residues) expressed in baculovirus infected insect cells using Boc Lys(Ac)-AMC as substrate preincubated for 5 mins followed by substrate addition and measured after 30 mins by fluorescence assay
[3] = test system: K562; assay: cells; format: functional, cell-based; settings: Homo sapiens, K562, 72 h
[4] = molecular target: Histone deacetylase (Homo sapiens) (UniProt Q13547+O15379+Q9UBN7+Q92769+Q9UQL6+Q8WUI4+Q9BY41+Q96DB2+P56524+Q9UKV0+Q969S8); assay: Inhibition of HDAC in human K562 cells assessed as increase in histone acetylation levels at 500 nM after 3 hrs by FACS analysis relative to SAHA; format: cell-based
[5] = test system: HCT-116; assay: cells; format: functional, cell-based; settings: Homo sapiens, HCT-116, 72 h
[6] = test system: A549; assay: cells; format: functional, cell-based; settings: Homo sapiens, A549, 72 h
[7] = molecular target: T2, Histone deacetylase 1; assay: Inhibition of recombinant human GST-tagged HDAC1 expressed in baculovirus infected Sf9 insect cells Fluor-de-lys as substrate measured after 2 hrs by fluorescence assay
[8] = molecular target: Histone deacetylase; format: cell-based, Homo sapiens; settings: hela
[9] = molecular target: T3, Histone deacetylase 4 (Homo sapiens, UniProt P56524); assay: Inhibition of HDAC4 (unknown origin)
[10] = molecular target: T1, Protein deacetylase HDAC6; assay: Inhibition of HDAC6 (unknown origin)
[11] = molecular target: T2, Histone deacetylase 1; assay: Inhibition of HDAC1 (unknown origin)
[12] = molecular target: T4, Protein deacetylase HDAC6 (Mus musculus, UniProt Q9Z2V5); assay: Inhibition of recombinant mouse HDAC6 expressed in HEK293T cells using Ac-KGLGK(Ac)-MCA as substrate measured after 30 mins by fluorescence assay
T4 sequence (Q9Z2V5 whole entry): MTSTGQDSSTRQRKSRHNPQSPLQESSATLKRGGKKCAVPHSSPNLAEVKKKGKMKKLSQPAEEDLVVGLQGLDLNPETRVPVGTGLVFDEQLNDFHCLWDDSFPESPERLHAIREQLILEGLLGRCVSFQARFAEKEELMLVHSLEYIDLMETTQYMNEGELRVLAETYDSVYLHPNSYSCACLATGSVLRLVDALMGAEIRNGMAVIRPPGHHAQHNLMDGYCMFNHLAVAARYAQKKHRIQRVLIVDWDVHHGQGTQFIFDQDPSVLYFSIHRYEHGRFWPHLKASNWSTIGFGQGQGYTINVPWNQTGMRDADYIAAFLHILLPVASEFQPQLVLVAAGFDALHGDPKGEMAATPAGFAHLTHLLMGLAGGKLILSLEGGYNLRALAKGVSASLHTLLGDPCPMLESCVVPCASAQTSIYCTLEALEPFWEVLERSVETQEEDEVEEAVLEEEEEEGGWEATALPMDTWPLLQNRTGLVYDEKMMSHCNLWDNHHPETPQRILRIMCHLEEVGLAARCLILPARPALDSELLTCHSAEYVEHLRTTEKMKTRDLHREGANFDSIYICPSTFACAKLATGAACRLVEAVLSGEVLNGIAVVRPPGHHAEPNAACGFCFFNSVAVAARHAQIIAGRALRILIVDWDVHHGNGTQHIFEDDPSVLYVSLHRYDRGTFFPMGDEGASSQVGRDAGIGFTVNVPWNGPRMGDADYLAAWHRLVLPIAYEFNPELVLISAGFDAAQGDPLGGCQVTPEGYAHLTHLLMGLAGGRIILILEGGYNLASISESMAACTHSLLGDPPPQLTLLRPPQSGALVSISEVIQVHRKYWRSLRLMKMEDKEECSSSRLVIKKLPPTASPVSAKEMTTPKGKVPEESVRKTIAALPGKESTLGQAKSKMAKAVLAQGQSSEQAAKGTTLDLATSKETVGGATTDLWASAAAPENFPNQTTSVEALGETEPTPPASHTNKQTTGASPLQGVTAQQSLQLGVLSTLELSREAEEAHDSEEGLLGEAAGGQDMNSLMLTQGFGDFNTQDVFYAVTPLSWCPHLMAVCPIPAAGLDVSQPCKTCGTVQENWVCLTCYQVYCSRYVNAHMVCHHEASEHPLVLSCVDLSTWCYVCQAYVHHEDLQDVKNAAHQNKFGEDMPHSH

[13] = molecular target: Histone deacetylase 3 (Homo sapiens, UniProt O15379); assay: Inhibition of HDAC3 (unknown origin)
[14] = molecular target: Histone deacetylase (HDAC1 and HDAC2) (Homo sapiens, UniProt Q13547+Q92769); format: cell-based; settings: hela
[15] = molecular target: T3, Histone deacetylase 4; assay: Inhibition of recombinant human HDAC4 expressed in HEK293T cells using Ac-KGLGK(Ac)-MCA as substrate measured after 30 mins by fluorescence assay
[16] = molecular target: T2, Histone deacetylase 1; assay: Inhibition of recombinant human HDAC1 expressed in HEK293T cells using Ac-KGLGK(Ac)-MCA as substrate measured after 30 mins by fluorescence assay

T3 sequence (P56524 whole entry): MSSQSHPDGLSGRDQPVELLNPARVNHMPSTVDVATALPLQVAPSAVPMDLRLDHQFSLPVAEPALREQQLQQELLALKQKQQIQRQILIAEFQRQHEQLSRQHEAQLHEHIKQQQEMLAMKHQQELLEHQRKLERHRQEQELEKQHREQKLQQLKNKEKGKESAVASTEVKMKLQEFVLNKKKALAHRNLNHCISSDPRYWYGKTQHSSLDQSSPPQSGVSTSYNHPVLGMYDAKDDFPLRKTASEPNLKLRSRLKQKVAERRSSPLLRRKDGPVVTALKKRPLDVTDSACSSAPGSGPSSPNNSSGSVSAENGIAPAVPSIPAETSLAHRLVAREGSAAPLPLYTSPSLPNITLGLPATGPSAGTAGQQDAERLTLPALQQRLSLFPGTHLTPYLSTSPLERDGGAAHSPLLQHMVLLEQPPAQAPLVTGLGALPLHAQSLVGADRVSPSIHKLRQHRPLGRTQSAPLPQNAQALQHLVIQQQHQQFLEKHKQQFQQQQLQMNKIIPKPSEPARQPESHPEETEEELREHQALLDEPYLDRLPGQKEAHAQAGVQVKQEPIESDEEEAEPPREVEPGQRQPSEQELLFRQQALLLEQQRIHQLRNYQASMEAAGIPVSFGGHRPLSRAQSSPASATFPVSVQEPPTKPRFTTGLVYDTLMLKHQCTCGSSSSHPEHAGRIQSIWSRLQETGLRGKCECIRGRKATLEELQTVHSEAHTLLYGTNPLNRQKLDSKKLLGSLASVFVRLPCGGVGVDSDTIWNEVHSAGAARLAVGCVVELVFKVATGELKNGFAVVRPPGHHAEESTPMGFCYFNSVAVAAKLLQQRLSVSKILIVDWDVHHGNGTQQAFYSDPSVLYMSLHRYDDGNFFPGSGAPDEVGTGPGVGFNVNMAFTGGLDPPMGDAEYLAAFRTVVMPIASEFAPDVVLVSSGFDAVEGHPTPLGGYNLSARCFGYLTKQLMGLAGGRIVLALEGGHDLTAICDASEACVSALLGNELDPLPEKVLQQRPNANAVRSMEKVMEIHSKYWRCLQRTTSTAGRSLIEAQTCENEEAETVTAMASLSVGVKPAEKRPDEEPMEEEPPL
Chain of Histone deacetylase 3 (O15379 whole entry): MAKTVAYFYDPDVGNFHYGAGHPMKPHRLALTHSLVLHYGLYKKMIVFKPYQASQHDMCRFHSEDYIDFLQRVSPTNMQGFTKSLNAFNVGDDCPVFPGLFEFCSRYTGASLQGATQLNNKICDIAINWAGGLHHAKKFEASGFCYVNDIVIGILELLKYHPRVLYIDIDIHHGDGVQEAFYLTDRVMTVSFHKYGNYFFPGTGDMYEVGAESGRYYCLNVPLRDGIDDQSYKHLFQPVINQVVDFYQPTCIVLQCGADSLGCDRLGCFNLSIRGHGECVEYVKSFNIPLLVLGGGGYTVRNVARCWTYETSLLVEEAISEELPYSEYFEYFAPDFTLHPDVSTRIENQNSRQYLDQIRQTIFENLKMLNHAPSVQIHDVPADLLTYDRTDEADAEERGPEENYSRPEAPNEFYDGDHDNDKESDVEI
T2 sequence (Q13547 whole entry): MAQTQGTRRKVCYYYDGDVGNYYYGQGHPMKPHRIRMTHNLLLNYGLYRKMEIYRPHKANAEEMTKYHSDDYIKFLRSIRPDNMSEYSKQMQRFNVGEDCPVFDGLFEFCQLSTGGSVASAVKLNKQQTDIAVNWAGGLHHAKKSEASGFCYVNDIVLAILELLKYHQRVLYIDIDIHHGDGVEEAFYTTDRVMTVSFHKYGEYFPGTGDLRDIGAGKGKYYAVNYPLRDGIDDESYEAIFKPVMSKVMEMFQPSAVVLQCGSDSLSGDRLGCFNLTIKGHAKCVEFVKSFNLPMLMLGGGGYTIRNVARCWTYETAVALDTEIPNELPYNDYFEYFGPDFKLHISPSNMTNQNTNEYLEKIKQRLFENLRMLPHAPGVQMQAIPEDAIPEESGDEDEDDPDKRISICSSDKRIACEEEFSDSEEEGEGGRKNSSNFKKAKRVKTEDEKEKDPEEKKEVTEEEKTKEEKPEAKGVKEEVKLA

In the case of CC(C)CCc1c(OCCCOc2cccc(/C=C/C(=O)NO)c2)ccc2c1OC(=O)CC2, the IC50 [1] is reported as 12.1 nM and the IC50 [2] is reported as 64.7 nM.

With O=C(CCCCCn1cc(-c2ccccc2)nn1)NO the IC50 [3] was 8350 nM, the histone acetylation relative to SAHA [4] was 48% and the IC50 [5] was 9370 nM. For the same molecule, the IC50 [6] was 12.5 µM.

CCCCc1nc2cc(/C=C/C(=O)NO)ccn2c1CN(CC)CCCC gave an IC50 [7] of 60 nM.

Work on CN(Cc1c(C(C)(C)C)nc2cc(/C=C/C(=O)NO)ccn12)CC(C)(C)C yielded an IC50 [7] of 780 nM.

CC(C)CCc1c(OCCOc2cccc(/C=C/C(=O)NO)c2)ccc2c1OC(=O)CC2 gave an IC50 [1] of 6.31 nM and an IC50 [2] of 66.8 nM.

CCN(CC)CCN(Cc1ccc(C(=O)NO)cc1)C(=O)c1cc2c([nH]c3ccccc32)c(-c2ccc(OC)cc2)n1 was tested, and the IC50 [8] was 0.12 µM.

For CC(=O)SCCCCCC(NC(=O)OCc1ccccc1)C(=O)Nc1cccc2cccnc12 (stereo not drawn), the IC50 [9] was 18 nM, the IC50 [10] was 34 nM and the IC50 [11] was 47 nM.

Work on CCC(CC)CN(CC)Cc1c(C)nc2cc(/C=C/C(=O)NO)ccn12 yielded an IC50 [7] of 10 nM.

O=C(CCCCCCn1cc(-c2ccccc2)nn1)NO gave an IC50 [3] of 1210 nM, a histone acetylation relative to SAHA [4] of 108% and an IC50 [5] of 1390 nM. For the same molecule, the IC50 [6] was 1.98 µM.

CCCCNCc1c(CCCC)nc2cc(/C=C/C(=O)NO)ccn12 gave an IC50 [7] of 20 nM.

Molecule O=C(CCCCCCn1cc(-c2ccc(Oc3ccccc3)cc2)nn1)NO has an IC50 [3] of 3300 nM, a histone acetylation relative to SAHA [4] of 53% and an IC50 [5] of 3550 nM. For the same molecule, the IC50 [6] was 4.34 µM.

With O=C(CCCCC[C@@H]1NC(=O)[C@H]2CCCN2C(=O)[C@@H]2CCCCCCCCCCC[C@@H](NC1=O)C(=O)N2)NO the IC50 [12] was 0.28 µM.

For COCCOCC(=O)SCCCCCC(NC(=O)OCc1ccccc1)C(=O)Nc1cccc2cccnc12 (stereo not drawn), the IC50 [9] was 18 nM, the IC50 [10] was 29 nM and the IC50 [11] was 19 nM.

In the case of CCCN(Cc1ccc(C(=O)NO)cc1)C(=O)c1cc2c([nH]c3ccccc32)c(-c2ccc(OC)cc2)n1, the IC50 [8] is reported as 0.26 µM.

With COc1ccc2c(c1)[nH]c1c(C)nccc12 [HARMINE] the IC50 [8] was greater than 10 µM.

Molecule O=C(NC(CCCCCSSCCCCCC(NC(=O)OCc1ccccc1)C(=O)Nc1cccc2cccnc12)C(=O)Nc1cccc2cccnc12)OCc1ccccc1 (stereo not drawn) has an IC50 [9] of 3.4 nM, an IC50 [10] of 7.5 nM and an IC50 [11] of 8.2 nM.

Molecule COc1cc(/C=C/C(=O)NO)ccc1OCCCCN(C)C(=O)c1ccccc1O has an IC50 [10] of 380 nM, an IC50 [13] of 260 nM and an IC50 [14] of 0.22 µmol/L.

With O=C1N[C@@H]2CCCCCCCCCCC[C@H](NC2=O)C(=O)N2CCC[C@@H]2C(=O)N[C@H]1CCCCCB(O)O the IC50 [15] was 9.4 µM, the IC50 [12] was greater than 100 µM and the IC50 [16] was 12 µM.

Work on O=C(NC(CCCCCSSCCO)C(=O)Nc1cccc2cccnc12)OCc1ccccc1 (stereo not drawn) yielded an IC50 [9] of 2 nM, an IC50 [10] of 3.2 nM and an IC50 [11] of 4.9 nM.

COc1ccc(-c2nc(C(=O)N(CCN(C)C)Cc3ccc(C(=O)NO)cc3)cc3c2[nH]c2ccccc23)cc1 showed an IC50 [8] of 0.092 µM.

Work on COc1cc(/C=C/C(=O)NO)ccc1OCCCNC(=O)c1ccccc1O yielded an IC50 [10] of 550 nM, an IC50 [13] of 680 nM and an IC50 [14] of 0.37 µmol/L.

COc1ccc(-c2cn(CCCCCCC(=O)NO)nn2)cc1 showed an IC50 [3] of 1530 nM, a histone acetylation relative to SAHA [4] of 85% and an IC50 [5] of 1780 nM. The IC50 [6] was 2.84 µM.

With CC(C)CCc1c(OCCCCOc2ccc(/C=C/C(=O)NO)cc2)ccc2c1OC(=O)CC2 the IC50 [1] was 82.6 nM and the IC50 [2] was 204 nM.

With COc1cc(/C=C/C(=O)NO)ccc1OCCCCNC(=O)c1ccccc1O the IC50 [10] was 360 nM, the IC50 [13] was 410 nM and the IC50 [14] was 0.22 µmol/L.

With CC(C)CCc1c(OCCOc2ccc(/C=C/C(=O)NO)cc2)ccc2c1OC(=O)CC2 the IC50 [1] was 55.6 nM and the IC50 [2] was 83.2 nM.

For COc1cc(/C=C/C(=O)NO)ccc1OCCCN(C)C(=O)c1ccccc1O, the IC50 [10] was 350 nM, the IC50 [13] was 290 nM and the IC50 [14] was 0.18 µmol/L.

For COCC(=O)CCCCC[C@@H]1NC(=O)[C@H]2CCCN2C(=O)[C@@H]2CCCCCCCCCCC[C@@H](NC1=O)C(=O)N2, the IC50 [15] was 0.026 µM, the IC50 [12] was greater than 100 µM and the IC50 [16] was 0.027 µM.
